In patent US11149046B2, “Antibacterial sideromycins” (Hsiri Therapeutics, Inc., priority 2014, dated 2021):
Values after ≈ are worked out from the molar mass of the structure shown. Like-named read-outs stand apart in the source and are kept apart here. Each block holds one molecule with its values, some of them ahead of it.

Tests used:
Pa6 = assay: MIC determination; type: cell-based, Pseudomonas aeruginosa; conditions: Pseudomonas aeruginosa
Description: (§1) MIC (minimum inhibition concentration) is given in μM and AD (agar diffusion zones of inhibition are given in mm from Kirby-Bauer Petri dish growth inhibition studies).

Pa4 = assay: MIC determination; type: cell-based, Pseudomonas aeruginosa; conditions: Pseudomonas aeruginosa; Table 5
Description: (§2) Table 3 that was included in the first Example 4 section provides antibacterial data for the first synthetic sideromycins we prepared and studied. The second Example 4 section elaborated and expanded on that data with inclusion of representative antibacterial data in the text and associated pictures of Petri dish assays. MIC (minimum inhibition concentration) is given in μM and AD (agar diffusion zones of inhibition are given in mm from Kirby-Bauer Petri dish growth inhibition studies).

P. aeruginosa KW799/wt = assay: MIC determination; type: cell-based, Pseudomonas aeruginosa; conditions: Pseudomonas aeruginosa, KW799/WT
Description: as §2

[1] = test system: strains of Pseudomonas and Acinetobacter; assay: Antibacterial activity, general statements; type: cell-based; conditions: general statements of the text
Procedure: Antibiotic activity was determined using agar diffusion assays against representative Gram-negative bacteria, including Pseudomonas aeruginosa (Pa6), and several multidrug resistant forms of Acinetobacter baumannii. Representative results are shown in Table 1 and a corresponding picture of an actual petri dish showing the agar diffusion results (FIG. 4). […].

A. baumannii ATCC 17961 = assay: MIC determination; type: cell-based, Acinetobacter baumannii; conditions: Acinetobacter baumannii
Description: as §2

E. coli DC0 = assay: MIC determination; type: cell-based; conditions: Escherichia coli, DC0; Table 5; read-out: MIC
Description: as §2

[2] = test system: E. coli DC2 (permeability mutant); assay: MIC determination; type: cell-based; conditions: Escherichia coli
Description: as §2

[3] = test system: Pseudomonas aeruginosa 01 (Pa01); assay: MIC determination; type: cell-based; conditions: Pseudomonas aeruginosa, read-out: MIC
Description: as §2

[4] = test system: Pa-Da-1304 CF patient isolate; assay: MIC determination; type: cell-based, Pseudomonas aeruginosa; conditions: for MIC: Pseudomonas aeruginosa; for susceptibility of the clinical isolate (in words): preliminary tests
Description: as §1
We obtained a clinical isolate of Pseudomonas from a cystic fibrosis patient.

[5] = test system: P. aeruginosa KW799/61 (permeability mutant); assay: microbe, parasite or virus in culture; type: cell-based, Pseudomonas aeruginosa; conditions: Pseudomonas aeruginosa
Description: as §1

[6] = test system: Acinetobacter baumannii ATCC 17961; assay: Agar diffusion (Kirby-Bauer) assay, with and without hydrogel; type: cell-based
Description: as §2
We investigated whether the sideromycin absorbed in the gel be able to diffuse out of the gel and into the agar to effect antibacterial growth. As a control, the sideromycin alone, without gel, was added in a separate 9 mm well, as usual.
The second question was whether the sideromycin continue to be released and be able to effect bacterial growth inhibition over extended periods. Thus, additional identical agar plates were prepared and stored at 4° C. for 24, 48 and 72 hours to allow diffusion of the sideromycin (control and gel forms) into the agar before allowing the bacteria to grow in an incubator. Then after each time period, the Petri dishes were incubated at 37° C. for 20 hours to promote bacteria growth in the agar. […] The study has been extended to as long as 168 hours (one week) with retention of antibiotic effectiveness.

[7] = test system: Pseudomonas aeruginosa KW799/wt; assay: Agar diffusion (Kirby-Bauer) assay; type: cell-based; conditions: wild type Pseudomonas; FIG. 8, 9, 12
Description: as §2

[8] = Animal tolerability study (NOAEL) in healthy mice; type: in vivo; conditions: 24 hour study
Procedure: With the easily formulated sideromycin in hand, we profiled sideromycin safety in healthy mice. Thus, sideromycin YML-I-115 was tested in healthy mice to determine its No-observed-adverse-effect level (NOAEL). We dosed the mice with YML-I-115 (the sodium salt) at 1 mg/kg, 20 mg/kg, 50 mg/kg, and 100 mg/kg through IV injection of the compound. […] Higher dosage animal experiments have been scheduled to determine the upper limit of the NOAEL value.

Acinetobacter = assay: Murine Survival Experiment with Acinetobacter; type: in vivo; conditions: 50 mg/kg IV at +30 min and +4 hr
Procedure: In vivo data for murine survival with Acinetobacter is shown in Table 9 below and graphically in FIG. 14. In the experiments, 10^8 Acinetobacter was administered IP at time 0 on Day 1, and antibiotic was administered twice IV at +30 min and +4 hr

[9] = ATCC17961, Table 5, head prints A. baumannii only, read-out: MIC
[10] = ATCC17961, Table 7, read-out: MIC

Structure (SMILES): CC(=O)Oc1cccc(C(=O)N(CCCCNC(=O)c2cccc(OC(C)=O)c2OC(C)=O)CC(=O)N[C@H](C(=O)N[C@@H]2C(=O)N3C(C(=O)O)=C(Cl)CC[C@H]23)c2ccccc2)c1O [YML-I-57]
MIC (Pa6; Table 5, read-out: MIC): 1.56 µM (≈ 1.37 µg/mL)
MIC (Pa4): 12 µM (≈ 10.5 µg/mL)
MIC (P. aeruginosa KW799/wt; Table 5, read-out: MIC): 0.025 µM (≈ 0.0219 µg/mL)
antibacterial activity (in words) [1]: comparable to the fully acetylated version, YML-1-45
MIC (A. baumannii ATCC 17961; [9]): 0.02 to 0.0625 µM (≈ 0.0175 to 0.0548 µg/mL)
MIC (E. coli DC0): 0.006 µM (≈ 0.00526 µg/mL)
MIC [2]: 0.006 µM (≈ 0.00526 µg/mL)
MIC ([3]; Table 5): 0.78 µM (≈ 0.683 µg/mL)
MIC ([4]; Table 5): > 100 µM
MIC [5]: 0.125 µM (≈ 0.11 µg/mL)

MIC (Pa6; Table 5, read-out: MIC): 6 µM (≈ 4.5 µg/mL)
MIC (Pa4): 12 µM (≈ 9 µg/mL)
MIC (P. aeruginosa KW799/wt; Table 5, read-out: MIC): 0.025 µM (≈ 0.0188 µg/mL)
MIC (A. baumannii ATCC 17961; [9]): 0.03 to 0.06 µM (≈ 0.0225 to 0.045 µg/mL)
MIC (A. baumannii ATCC 17961; [10]): 0.1 µM (≈ 0.075 µg/mL)
MIC ([3]; Table 5): 1.5 µM (≈ 1.13 µg/mL)
MIC ([4]; Table 5): > 100 µM
Structure (SMILES): O=C(CN(CCCCNC(=O)c1cccc(O)c1O)C(=O)c1cccc(O)c1O)N[C@H](C(=O)N[C@@H]1C(=O)N2C(C(=O)O)=C(Cl)CC[C@H]12)c1ccccc1 [YML-I-60]
growth inhibition with hydrogel / multi-day diffusion (in words) ([6]; plates stored at 4° C. for 24, 48 and 72 hours, then 37° C., or gel streaked on inoculated dish): zones of inhibition increased dramatically after each day

Structure (SMILES): CC(=O)Oc1cccc(C(=O)NCCCCN(CC(=O)N[C@@H](C(=O)N[C@@H]2C(=O)N3C2SC(C)(C)[C@@H]3C(=O)O)c2ccccc2)C(=O)c2cccc(O)c2O)c1OC(C)=O (some centres unmarked) [YML-I-62]
MIC (Pa6; beta-lactamase producer strain, read-out: MIC): > 100 µM
MIC (Pa6; in the presence of potassium clavulanate, read-out: MIC with added beta-lactamase inhibitor): 0.0625 µM
MIC (Pa4): 0.0156 µM (≈ 0.013 µg/mL)
MIC (P. aeruginosa KW799/wt; Table 5, read-out: MIC): 0.0156 µM (≈ 0.013 µg/mL)
zones of inhibition (in words) [7]: potently active
MIC (A. baumannii ATCC 17961; [9]): 0.25 µM (≈ 0.208 µg/mL)
MIC (A. baumannii ATCC 17961; [10]): 0.25 µM (≈ 0.208 µg/mL)
MIC ([3]; Table 5): 0.0156 µM (≈ 0.013 µg/mL)
MIC ([4]; Table 5): 0.78 µM (≈ 0.65 µg/mL)
MIC ([4]; clinical isolate from a cystic fibrosis patient): 0.4 to 0.75 µM (≈ 0.334 to 0.625 µg/mL)
MIC [5]: 0.0078 µM (≈ 0.0065 µg/mL)

Structure (SMILES): O=C(CN(CCCCNC(=O)c1cccc(O)c1O)C(=O)c1cccc(O)c1O)NC(C(=O)NC1C(=O)N2C(C(=O)[O-])=C(Cl)CCC12)c1ccccc1.[Na+] (centres unmarked) [YML-I-115]
survival and behavior (in words) ([8]; 1, 20, 50 and 100 mg/kg IV): All the mice survived and none of the mice experienced abnormal behavior
No-observed-adverse-effect level (NOAEL) ([8]; healthy mice, IV injection): 100 mg/kg
murine survival (surviving mice) (Acinetobacter; D 1, 10^8 Acinetobacter IP): 6
murine survival (surviving mice) (Acinetobacter; D 2): 6
murine survival (surviving mice) (Acinetobacter; D 3): 6
murine survival (surviving mice) (Acinetobacter; D 4): 6
murine survival (surviving mice) (Acinetobacter; D 5): 6
murine survival (surviving mice) (Acinetobacter; D 6): 6
murine survival (surviving mice) (Acinetobacter; D 7): 6

Structure (SMILES): CC1(C)S[C@@H]2[C@H](NC(=O)[C@H](N)c3ccc(O)cc3)C(=O)N2[C@H]1C(=O)O [amoxicillin, reference compound]
susceptibility of the clinical isolate (in words) [4]: resistant

MIC (Pa6; Table 5, read-out: MIC): > 200 µM
MIC (Pa4): > 200 µM
MIC (P. aeruginosa KW799/wt; Table 5, read-out: MIC): 200 µM (≈ 69.9 µg/mL)
MIC (P. aeruginosa KW799/wt; iron deficient media, read-out: MIC in Fe(−)MHII Media): 250 µM (≈ 87.4 µg/mL)
MIC (A. baumannii ATCC 17961; [9]): > 200 µM
MIC (A. baumannii ATCC 17961; [10]): > 200 µM
MIC (A. baumannii ATCC 17961; ATCC17961, iron deficient media, read-out: MIC in Fe(−)MHII Media): 250 µM (≈ 87.4 µg/mL)
MIC (A. baumannii ATCC 17961; ATCC17961, text, read-out: MIC): > 250 µM
MIC ([3]; Table 7): > 200 µM
MIC ([3]; Table 5): > 200 µM
MIC ([4]; Table 5): > 200 µM
Structure (SMILES): CC1(C)S[C@@H]2[C@H](NC(=O)[C@H](N)c3ccccc3)C(=O)N2[C@H]1C(=O)O [ampicillin, reference compound]
zones of inhibition (in words) ([6]; Acinetobacter, FIG. 8, 9, 10): inactive
zones of inhibition (in words) [7]: inactive
susceptibility of the clinical isolate (in words) [4]: resistant

MIC (P. aeruginosa KW799/wt; Table 7, read-out: MIC): > 50 µM
MIC (A. baumannii ATCC 17961; [10]): > 50 µM
MIC ([3]; Table 7): > 50 µM
Structure (SMILES): N[C@@H](C(=O)N[C@@H]1C(=O)N2C(C(=O)O)=C(Cl)CS[C@H]12)c1ccccc1 [cefaclor, reference compound]
